According to EP0307553B1, “Modified splenopentines, their process of preparation and their use” (priority 1987, dated 1989):
Entries after “also recorded” stand apart in the source; their conditions may differ. Read-outs that look alike come from different tables or passages of the source.

Legend:
NMRI-Mäuse = type: in vivo; conditions: i. p., without DAc-SP5
Source text: Der Einfluß von DAc-SP5 und immunsuppressiv wirkenden Verbindungen auf die Antigen-spezifische IgM-Antwort bei Mäusen wurde untersucht. Die erhaltenen Ergebnisse sind in den Fig.1 und 2 dargestellt.
DAc-SP5 rekonstituiert bereits durch wenige aufeinanderfolgende Applikationen die chemisch induzierts Suppression der humoralen Immunantwort.

[1] = test system: T4-Antigenen auf der Oberfläche menschlicher Lymphocyten; assay: Increase of T4 antigens on the surface of human lymphocytes of SLE patients in vitro (monoclonal antibodies); type: cell-based, Mensch
Source text: (§1) N^ε-MAc-SP5 (Sequenz 32 bis 36 des Milzhormons Splenin) hat die gleichen bzw. ähnliche immunbiologische Wirkungen wie das Gesamtmolekül Splenin. […] Funktionstüchtige T-Helferlymphocyten stimulieren die Antikörperbildung. Zum Nachweis einer Erhöhung der Antikörper-Bildung durch N^ε-MAc-SP5 wurde ein relevantes tierexperimentelles Modell gewählt: AB/Bln.-Mäuse wurden mit Röntgenstrahlen subletal bestrahlt und danach mit bzw. ohne N^ε-MAc-SP5 therapiert. Gleichzeitig erfolgte die Immunisierung der Tiere mit Schafserythrocyten. Da subletal bestrahlte Tiere die Fähigkeit verlieren, quantitativ ausreichend Antikörper zu produzieren, ist eine vermehrte Bildung von Antikörpern gegen Schafserythrocyten bei den mit N^ε-MAc-SP5 behandelten Tieren ein Maß für die Regeneration des Immunsystems durch N^ε-MAc-SP5. Mit N^ε-MAc-SP5 behandelte Tiere konnten bereits nach 34 Tagen Antikörper in gleicher Menge wie unbestrahlte Kontrolltiere bilden. Im Vergleich dazu waren nicht mit N^ε-MAc-SP5 behandelte Tiere dazu erst 48 Tage nach der einmaligen Röntgenbestrahlung befähigt.
Funktionstüchtige (reife) T-Helferlymphocyten besitzen auf ihrer Oberfläche T4-Antigene, T-Suppressorlymphocyten T8-Antigene. Bei Patienten mit Systemischem Lupus Erythematodes (SLE) wurde mittels monoklonaler Antikörper ein verminderter Gehalt von T4-Antigenen auf der Lymphocytenoberfläche bestimmt. […]

[2] = test system: Lymphocyten der SLE-Patienten; assay: 3H-thymidine incorporation of lymphocytes of SLE patients; type: cell-based, Mensch; conditions: after contact with N^ε-MAc-SP5; n = 5; no significant deviation from no contact (t-test)
Source text: T4-Antigene nehmen zu, wenn sich T4-Zellen vermehren bzw., wenn die Antigene vermehrt auf ihrer Oberfläche exprimiert werden. Die Untersuchungen ergaben, daß die Lymphocyten der SLE-Patienten nach Kontakt mit N^ε-MAc-SP5 keine erhöhten ³H-Thymidineinbauraten aufwiesen (910 ± 180 Impulse je Minute ohne N^ε-MAc-SP-5-Kontakt/820 ± 210 Impulse je Minute nach Kontakt mit N^ε-MAc-SP5; n = 5, keine signifikante Abweichung im t-Test). Es ist daher anzunehmen, daß die Zunahme der T4-Antigene nicht durch eine Vermehrung von T4-Zellen zustandekommt, sondern Folge einer strukturellen Veränderung der T-Zelloberfläche, möglicherweise identisch mit einem "Reifeprozeß" der Zelle, ist.

AB/Bln.-Mäuse = assay: Antibody formation against sheep erythrocytes (Jerne plaque test) after sublethal X-ray irradiation; type: in vivo; conditions: 600 c Gy; 10 or 50 µg i.p. every second day; untreated irradiated animals 48 days
Source text: as §1, with “befähigt. […]” for “befähigt.”

männlichen Balb/c-Mäusen = conditions: in vivo

Compound: O=P1(N(CCCl)CCCl)NCCCO1 (centres unmarked) [Cyclophosphamid]
- Antigen-spezifischen IgM-Antwort (NMRI-Mäuse; single dose 7,2 mg/Tier): nahezu vollständige Suppression

Compound: C[C@@H]1C[C@H]2[C@@H]3CCC4=CC(=O)C=C[C@]4(C)[C@@]3(F)[C@@H](O)C[C@]2(C)[C@@]1(O)C(=O)CO [Dexamethason]
- Antigen-spezifischen IgM-Antwort (NMRI-Mäuse; 0,2 mg/Tier or 0,08 mg/Tier): Reduktion

Compound: Arginyl(N^ε-acetyl-lysyl)glutamylvalyl)tyrpsin [N^ε-MAc-SP5]
- TB-Antigene (Oberflächenantigene auf T-Suppressorlymphocyten bzw. cytotoxischen T-Lymphocyten) ([1]; lymphocytes of SLE patients after contact with N^ε-MAc-SP5): veränderten sich dagegen quantitativ nicht
- Anzahl von T4-Antigenen ([1]; lymphocytes of SLE patients before therapy, 2 h incubation with N^ε-MAc-SP5): quantitative Zunahme von T4-Antigenen; also recorded: permanent erhöhte Anzahl von T4-Antigenen
- ³H-Thymidineinbauraten [2]: 820 ± 210 Impulse je Minute
- time after X-ray irradiation until Antikörper in gleicher Menge wie unbestrahlte Kontrolltiere (AB/Bln.-Mäuse): 34 Tage

Compound: CCO [Ethanol]
- % phagocytierende Peritonealzellen (männlichen Balb/c-Mäusen): 29,0±1,7%
- Milzmasse (mg) (männlichen Balb/c-Mäusen): 60,0±3,2 mg
- Phagocytoseindex (männlichen Balb/c-Mäusen): 3,0±0,08
- Plaque-bildende Zellen der Milz pro 10⁶ Zellen (Jerne-Plaquetest) (männlichen Balb/c-Mäusen): 61,3±3,8 pro 10⁶ Zellen
- Thymusmasse (mg) (männlichen Balb/c-Mäusen): 15,0±2,6 mg
